One compound from US11071731B2, “Allosteric modulators of the mu opioid receptor” (Chiromics, LLC, priority 2017, dated 2021) can be followed below.

The target in one data set is mu opioid receptor (MOR) (Homo sapiens, UniProt P35372). In words: Hit Hunter cAMP signaling assay (adenylyl cyclase inhibition), PAM mode with EC20 endomorphin-1. Type of data set: cell-based.
Data set [1] has as its target T1, MOR (Homo sapiens, UniProt P35372). In words: EM1 concentration-response curves for β-arrestin recruitment with or without compound, full functional allosteric model. Type of data set: cell-based. (Recruitment of arrestin is a read-out of receptor activation apart from second messengers.)
In data set [2] the target is T1, MOR. Put plainly: cell-based. Particulars: EC20 morphine agonism of MOR.
The target in data set [3] is T1, MOR. Type of data set: cell-based. As to conditions: cAMP; EC20 EM2 agonism of MOR.
A short description of data set [4]: Plasma concentration time-course after SC or IP dosing. Type of data set: in vivo. Particulars: 15 mg/kg, intraperitoneal or subcutaneous, CD-1 mice, blood samples. The protocol: To be useful as a therapeutic, a MOR PAM must not only be able to activate endogenous and non-endogenous orthosteric ligands of the MOR, it must also persist in the body in concentrations sufficient to exert its allosteric effect. To test intracorporeal persistence, murine models were chosen, based on the preponderance of data available linking endogenous opioids to analgesic mechanisms. Compound 9 (Table 10) was formulated for dosing in CD-1 mice. Two mice per group were tested and each group was administered 15 mg/kg of the compound. Concentrations of the compound were measured by mass spectrometry of blood samples.

Another data set deals with Sprague-Dawley rats. In words: Gastrointestinal transit of charcoal bolus and stomach contents. As to conditions: morphine 10 mg/kg, compound 9 15, 30, 60 mg/kg.

Read-outs that look alike come from different tables or passages of the source. Some results are limits rather than exact numbers.

T1 sequence (P35372 whole entry): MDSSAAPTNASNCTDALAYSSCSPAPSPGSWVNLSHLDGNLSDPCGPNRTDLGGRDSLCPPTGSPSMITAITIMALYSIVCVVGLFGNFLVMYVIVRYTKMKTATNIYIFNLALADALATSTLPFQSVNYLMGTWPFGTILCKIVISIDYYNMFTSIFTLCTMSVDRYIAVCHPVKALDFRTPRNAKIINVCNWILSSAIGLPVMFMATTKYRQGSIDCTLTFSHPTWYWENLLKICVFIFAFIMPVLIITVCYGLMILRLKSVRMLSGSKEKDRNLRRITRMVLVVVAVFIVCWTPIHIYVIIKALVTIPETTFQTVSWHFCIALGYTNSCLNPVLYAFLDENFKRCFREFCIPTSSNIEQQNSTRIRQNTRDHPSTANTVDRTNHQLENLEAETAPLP
Chain of mu opioid receptor (MOR) (P35372 whole entry): as above

By EC50 is commonly meant the concentration at which the effect is half-maximal. High values mean a less potent agent, low ones a more potent agent. In the case of `Fc1cnc(Cl)nc1N1CCCCC1c1cccc(C(F)(F)F)c1` (single isomer, unassigned) [compound 9], the EC50 at mu opioid receptor (MOR) (RC50 for adenylyl cyclase inhibition, EM1-mediated MOR agonism) is 590 nM; on mu opioid receptor (MOR) (cAMP EC50, adenylyl cyclase inhibition) it was < 700 nM; on MOR [2] (RC50, cAMP), 2950 nM. The “Max. Response” value at mu opioid receptor (MOR) (cAMP, EC20 EM-1 agonism of MOR) came out at 75; on MOR [2] (cAMP) it was 38; at MOR [3] it was 80. For the same compound, at mu opioid receptor (MOR) (maximal response for adenylyl cyclase inhibition), the “cAMP Max. Resp.” value is on record as “F (F represents a maximal response of > 60%)”. Moreover, the “effective potency for PAM effect” value at MOR [1] is reported as 70.8 nM. Besides, the “factor of increase of the affinity (α) of EM1” value on MOR [1] worked out at 9. Also, on MOR [1], the “factor of increase of the efficacy (β) of EM1” value is 3. Further, the “shift in the potency of EM1” value on MOR [1] was “concentration-dependent and saturable leftward shifts”. Moreover, the “αβ product, in vitro” value on MOR [1] (β-arrestin endomorphin responses) is given as 27. For the same compound, the “exposure and half-life” value in data set [4] is “exposures and an a half-life appropriate for in vivo studies”. Also, the “stomach weight” value with Sprague-Dawley rats (20 minutes after charcoal) is recorded as “unchanged”. In addition, the “GI transit” value with Sprague-Dawley rats (subcutaneous 1 hour before charcoal) was “unchanged”.
